Like-named read-outs stand apart in the source and are kept apart here.
How the values were obtained:
[1] = tested on: bovine coronavirus (BCoV) strain S379 Riems; assay type: cell-based, Beta-coronavirus 1; settings: for EC100 (100% Viable Cells): BCoV MOI = 1, with irradiation
[2] = tested on: bovine coronavirus (BCoV); assay type: cell-based, Beta-coronavirus 1; settings: with irradiation, MDBK cells
[3] = tested on: MDBK cells; experiment: cells; settings: Bos taurus
[4] = tested on: SARS-CoV-2; settings: irradiation with a wave length of λ = 662 nm; cited from earlier work
[5] = tested on: BCoV; design: method as in ref 48 = [48]; settings: independently of light; cited from earlier work
[6] = tested on: vaccinia viruses; settings: 30 µM of MB + PDI; not virus antigenicity; cited from earlier work
[7] = tested on: SARS-CoV-2; settings: 1% MB, cited from earlier work
[8] = tested on: bovine coronavirus (BCoV); assay type: cell-based, Beta-coronavirus 1
[9] = tested on: MDBK cells; settings: for IC50: no BCoV
[10] = tested on: human adenovirus type 5 (HAdV5); design: method as in ref 16 = [16]; settings: combined virucidal and irradiation effects; cited from earlier work
[11] = tested on: SARS-CoV-2; design: method as in ref 19 = [19]; settings: in combination with far red light irradiation; cited from earlier work
[12] = tested on: avian H5N8 influenza virus; settings: cited from earlier work

## CN(C)c1ccc2nc3ccc(=[N+](C)C)cc-3sc2c1 [MB, Methylene blue]
[1]; MDBK cells, MTT
  EC100 (100% Viable Cells): 0.15 µM
[1]; without irradiation, highest tested concentration 0.3 µM, Figure 7a
  "dark" antiviral activity towards BCoV: not enough to achieve “dark” antiviral activity
[2]
  concentrations up to which permissive cells were observed: up to 0.075 µM
[3]; 24 h
  IC50: 2540 nM
[3]; 48 h
  IC50: 1280 nM
[3]; 72 h
  IC50: 1800 nM
[3]; read-out: IC50, range over the incubation periods
  IC50: 1280 to 2540 nM
[4]
  protection of Vero E6 cells from infection: fully protected
[5]
  concentration at which light-independent antiviral activity was observed: ≥ 1 µM
[6]
  effect on virus infectivity: loss of virus infectivity
[7]; gargling or spraying in the nasal cavity, early stages of the infection
  SARS-CoV-2 virus load: sufficient reduction of the SARS-CoV-2 virus load
[7]; local application, even in patients with co-morbidities
  adverse effects: lack of adverse effects

## Cc1cc2nc3ccc(N(C)C)cc3[s+]c2cc1N.[Cl-] [TBO, toluidine blue O]
[1]
  fold higher SI of TBO than MB: 1.7 fold
[1]; 50% BCoV inactivation, with irradiation
  fold lower EC50 (fold more active) of TBO than MB: 3.6 fold
[1]; BCoV MOI = 1, irradiation 54 J/cm^2 (680 nm) for MB, 99 J/cm^2 (635 nm) for TBO, MDBK cells, MTT, read-out: EC50 (50% Viable Cells)
  EC50: 5 nM
[1]; MDBK cells, MTT
  EC100 (100% Viable Cells): 0.02 µM
[1]; IC50 in MDBK cells / EC50 for direct BCoV inactivation with irradiation
  SI (IC50/EC50): 170
[1]; irradiation 680 nm and 54 J/cm^2 for MB, 635 nm and 99 J/cm^2 for TBO, Figure 7
  concentration resulting in strong inactivation of BCoV: ≥ 0.02 µM
[1]; with irradiation
  fold more effective than MB, based on the active concentrations: 25 fold
[1]; without irradiation, 0.25 µM, Figure 7b
  viable cells: 80%
[1]; without irradiation, concentration increased above 0.25 µM, Figure 7b
  decrease of the fraction of viable cells (cytotoxic): approximately 50%
[2]
  concentrations up to which permissive cells were observed: up to 0.01 µM
[8]
  decrease in the number of viral cDNA: ~ 6 log/mL
[8]; TBO 0.02 µM
  Δlog cDNA/mL vs. Virus Control: 1.08 × 10^3
[8]; TBO 0.30 µM
  Δlog cDNA/mL vs. Virus Control: 5.91 × 10^6
[9]; 24 h incubation
  MNC (maximal nontoxic concentration): 0.66 µM
  IC50: 970 nM
[9]; 48 h incubation
  MNC (maximal nontoxic concentration): 0.35 µM
  IC50: 520 nM
[9]; 72 h incubation
  MNC (maximal nontoxic concentration): 0.59 µM
  IC50: 850 nM
[9]; 72 h of incubation
  fold lower IC50 of TBO than MB: 2.12 fold

## octa-methylpyridyloxy-substituted Ga phthalocyanine [Ga8]
[10]
  PDI potential on naked viruses, especially on HAdV5: remarkable PDI potential

## octakis (cholinyl) zinc phthalocyanine [Zn-PcChol8+]
[11]
  infectivity of SARS-CoV-2: completely destroyed the infectivity
[12]
  sensitivity of the virus to PDI: sensitive to PDI

## tetra-methylpyridyloxy-substituted Ga phthalocyanine [Ga4]
[10]
  PDI potential on naked viruses, especially on HAdV5: remarkable PDI potential

Source: article PMC10818719 (Viruses, 2023)
